{
  "source": "patent US20080125395A1",
  "about": "“COMPOSITIONS AND METHODS FOR THE TREATMENT OF SKIN” (priority 1999, published 2008)",
  "tested_on": "rosacea",
  "assay": "topical treatment of rosacea in human subjects (case reports)",
  "assay_type": "in vivo",
  "conditions": "long-term use by subjects with facial rosacea",
  "description": "A second subject was a person who suffered from disfiguring rosacea on their face for 14 years. […] After failure of the cortisone treatment to provide adequate relief, the subject used an ascorbic acid, zinc sulfate and tyrosine formulation once a day. The ascorbic acid composition provided slight relief, but the subject's rosacea never cleared up adequately. The subject then used the same ascorbic acid formulation to which 20% (w/v) glucosamine had been added.\nFIG. 4 provides an exemplary depiction of the cosmetic and therapeutic benefits of the present invention. A subject used an embodiment of the present invention containing glucosamine for one week. Before using the embodiment (panel A), the subject suffered from disfiguring rosacea blemishes on their face. […] In one week, the size of blemishes has decreased and the intensity of the rosacea has abated, although some scarring (resulting from years of severe inflammatory lesions that had not responded to previous treatments) remains.",
  "data": [
    {"smiles": "C[C@]12CCC(=O)C=C1CC[C@@H]1[C@@H]2[C@@H](O)C[C@@]2(C)[C@H]1CC[C@]2(O)C(=O)CO", "note": "[hydrocortisone]", "values": [
      {"measurement": "control of rosacea inflammation", "value": "partially control"}
    ]}
  ]
}
